pIC50: −log10 of the molar value. Read-outs that look alike come from different tables or passages of the source.
Target: 11β-HSD1 (Homo sapiens, UniProt P28845)
Assay: biochemical
Settings: for pIC50: IC50 Range, Biological Test Example 1, microsomes from CHO cells overexpressing human 11β-HSD1
[1] = read-out: Average % inhibition at 111.1 nM, Biological Test Example 1, 111.1 nM compound
[2] = read-out: Average % inhibition at 100 nM, Biological Test Example 1, 100 nM compound
[3] = read-out: Average % inhibition at 100 nM

11β-HSD1, sequence (P28845 whole entry): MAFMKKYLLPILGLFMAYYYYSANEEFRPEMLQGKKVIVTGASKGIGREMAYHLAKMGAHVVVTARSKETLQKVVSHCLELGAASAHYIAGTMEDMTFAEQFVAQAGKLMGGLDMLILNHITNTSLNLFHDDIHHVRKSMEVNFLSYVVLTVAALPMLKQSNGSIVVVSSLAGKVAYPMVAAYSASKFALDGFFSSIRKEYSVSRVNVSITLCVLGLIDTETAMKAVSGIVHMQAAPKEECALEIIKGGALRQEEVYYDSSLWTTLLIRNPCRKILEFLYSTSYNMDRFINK

pIC50	inhibition at 0.1111 µM [1] [%]	inhibition at 0.1 µM [2] [%]	SMILES	inhibition at 0.1 µM [3] [%]	inhibition at 0.1111 µM (read-out: Average % inhibition at 111.1 nM) [%]
> 7.00	88.7		O=C1OC(CCO)(c2ccccc2F)CCN1c1ccc(F)c(-c2ccc(F)cc2F)c1 (stereo not drawn) [EXAMPLE 106, 6-(2-fluorophenyl)-6-(2-hydroxyethyl)-3-(2′,4′,6-trifluorobiphenyl-3-yl)-1,3-oxazinan-2-one]		
> 7.00	55.4		O=C1OC(CCO)(c2ccc(F)cc2)CCN1c1cccc(-c2ccc(F)cc2F)n1 (stereo not drawn) [EXAMPLE 108, 3-(6-(2,4-difluorophenyl)pyridin-2-yl)-6-(4-fluorophenyl)-6-(2-hydroxyethyl)-1,3-oxazinan-2-one]		
> 7.00	82.8		CC(C)(O)CC1(c2ccccc2)CCN(c2cccc(-c3ccc(F)cc3F)c2)C(=O)O1 (stereo not drawn) [EXAMPLE 117, 3-(2′,4′-difluorobiphenyl-3-yl)-6-(2-hydroxy-2-methylpropyl)-6-phenyl-1,3-oxazinan-2-one]		
> 7.00	96.8		O=C1OC(CCO)(c2ccc(F)cc2)CCN1c1cccc(-c2ccc(F)cc2Cl)n1 (stereo not drawn) [EXAMPLE 118, 3-(6-(2-chloro-4-fluorophenyl)pyridin-2-yl)-6-(4-fluorophenyl)-6-(2-hydroxyethyl)-1,3-oxazinan-2-one]		
> 7.00	97.6		C=CC[C@]1(c2ccc(F)cc2)CCN([C@@H](C)c2ccc(C3CC3)cc2)C(=O)O1 [EXAMPLE 123, (R)-6-allyl-3-((S)-1-(4-cyclopropylphenyl)ethyl)-6-(4-fluorophenyl)-1,3-oxazinan-2-one]		
> 7.00		86.3	COC(=O)c1ccc([C@H](C)N2CC[C@](CCCO)(c3ccc(F)cc3)OC2=O)cc1 [EXAMPLE 127, Methyl 4-((S)-1-((R)-6-(4-fluorophenyl)-6-(3-hydroxypropyl)-2-oxo-1,3-oxazinan-3-yl)ethyl)benzoate]		
6.00 to 7.00	26.6	27	C=CC[C@]1(c2ccc(F)cc2)CCN([C@@H](C)c2ccc(C(N)=O)cc2)C(=O)O1 [EXAMPLE 153, 4-((S)-1-((R)-6-allyl-6-(4-fluorophenyl)-2-oxo-1,3-oxazinan-3-yl)ethyl)benzamide]		
> 7.00	81.8		C[C@@H](c1ccc(-c2ccc(F)cc2)cc1)N1CC[C@@](CCCO)(c2cccs2)OC1=O [EXAMPLE 166, (S)-3-((S)-1-(4′-fluorobiphenyl-4-yl)ethyl)-6-(3-hydroxypropyl)-6-(thiophen-2-yl)-1,3-oxazinan-2-one]		
> 7.00		97	CC(O)C[C@]1(c2ccccc2)CCN([C@@H](C)c2ccc(-c3ccc(F)cc3F)cc2)C(=O)O1 (stereo partly drawn) [EXAMPLE 170, (6S)-3-((S)-1-(2′,4′-difluorobiphenyl-4-yl)ethyl)-6-(2-hydroxypropyl)-6-phenyl-1,3-oxazinan-2-one]		
> 7.00		96.8	COc1ccc([C@H](C)N2CC[C@](CCO)(c3ccc(F)cc3)OC2=O)cc1 [EXAMPLE 195, (S)-6-(4-fluorophenyl)-6-(2-hydroxyethyl)-3-((S)-1-(4-methoxyphenyl)ethyl)-1,3-oxazinan-2-one]		

More lines, now with the values behind:

SMILES	pIC50	inhibition at 0.1111 µM [1] [%]	inhibition at 0.1 µM [2] [%]	inhibition at 0.1 µM [3] [%]	inhibition at 0.1111 µM (read-out: Average % inhibition at 111.1 nM) [%]
O=C1OC(CCO)(c2ccccc2)CCN1c1cccc(-c2ccc(F)cc2F)n1 (stereo not drawn) [EXAMPLE 107, 3-(6-(2,4-difluorophenyl)pyridin-2-yl)-6-(2-hydroxyethyl)-6-phenyl-1,3-oxazinan-2-one]	> 7.00	97	90.9		
O=C1OC(CCO)(c2ccccc2)CCN1c1cccc(-c2ccc(F)cc2Cl)n1 (stereo not drawn) [EXAMPLE 116, 3-(6-(2-chloro-4-fluorophenyl)pyridin-2-yl)-6-(2-hydroxyethyl)-6-phenyl-1,3-oxazinan-2-one]	> 7.00	97.6			
CC1(c2ccccc2)CCN(c2nc(-c3ccccc3)cs2)C(=O)O1 (stereo not drawn) [EXAMPLE 121, 6-methyl-6-phenyl-3-(4-phenylthiazol-2-yl)-1,3-oxazinan-2-one]	6.00 to 7.00	34.2			
C[C@@H](C1CCCCC1)N1CC[C@](CCCO)(c2ccc(F)cc2)OC1=O [EXAMPLE 122, (R)-3-((S)-1-cyclohexylethyl)-6-(4-fluorophenyl)-6-(3-hydroxypropyl)-1,3-oxazinan-2-one]	> 7.00	95.6	94.1		
C=CC[C@]1(c2ccc(F)cc2)CCN([C@@H](C)c2ccc(C(=O)OC)cc2)C(=O)O1 [EXAMPLE 124, Methyl 4-((S)-1-((R)-6-allyl-6-(4-fluorophenyl)-2-oxo-1,3-oxazinan-3-yl)ethyl)benzoate]	> 7.00	96.8	95.2		
C[C@@H](c1ccc(C2CC2)cc1)N1CC[C@](CCCO)(c2ccc(F)cc2)OC1=O [EXAMPLE 125, (R)-3-((S)-1-(4-cyclopropylphenyl)ethyl)-6-(4-fluorophenyl)-6-(3-hydroxypropyl)-1,3-oxazinan-2-one]	> 7.00	94	98.3		
O=C1O[C@@](CCO)(c2ccccc2)CCN1c1cccc(-c2ccc(F)cc2)[n+]1[O-] [EXAMPLE 126, (S)-2-(4-fluorophenyl)-6-(6-(2-hydroxyethyl)-2-oxo-6-phenyl-1,3-oxazinan-3-yl)pyridine 1-oxide]	> 7.00	80.7	79		
C=CCC1(c2ccc(F)cc2)CCN(C(C)c2ccc(-c3ccc(F)cc3F)cn2)C(=O)O1 (stereo not drawn) [EXAMPLE 131, 6-allyl-3-(1-(5-(2,4-difluorophenyl)pyridin-2-yl)ethyl)-6-(4-fluorophenyl)-1,3-oxazinan-2-one]	< 6.00	11.3	6.6		
O=C1OC(CCO)(c2ccccc2F)CCN1c1cccc(-c2ccc(F)cc2F)[n+]1[O-] (stereo not drawn) [EXAMPLE 132, 2-(2,4-difluorophenyl)-6-(6-(2-fluorophenyl)-6-(2-hydroxyethyl)-2-oxo-1,3-oxazinan-3-yl)pyridine 1-oxide]	6.00 to 7.00	30.4			
O=C1OC(CCO)(c2ccccc2F)CCN1c1ccc(Cl)c(-c2ccc(F)cc2)n1 (stereo not drawn) [EXAMPLE 133, 3-(5-chloro-6-(4-fluorophenyl)pyridin-2-yl)-6-(2-fluorophenyl)-6-(2-hydroxyethyl)-1,3-oxazinan-2-one]	> 7.00			85.8	95.4
O=C1OC(CCO)(c2ccccc2F)CCN1c1ccc(Cl)c(-c2ccc(F)cc2F)n1 (stereo not drawn) [EXAMPLE 135, 3-(5-chloro-6-(2,4-difluorophenyl)pyridin-2-yl)-6-(2-fluorophenyl)-6-(2-hydroxyethyl)-1,3-oxazinan-2-one]	> 7.00	93.8	88.9		
C[C@@H](c1ccc(C(=O)O)cc1)N1CC[C@](CCCO)(c2ccc(F)cc2)OC1=O [EXAMPLE 142, 4-((S)-1-((R)-6-(4-fluorophenyl)-6-(3-hydroxypropyl)-2-oxo-1,3-oxazinan-3-yl)ethyl)benzoic acid]	6.00 to 7.00	27.4	34.4		
C[C@@H](c1ccc(CO)cc1)N1CC[C@](CCCO)(c2ccc(F)cc2)OC1=O [EXAMPLE 154, (R)-6-(4-fluorophenyl)-3-((S)-1-(4-(hydroxymethyl)phenyl)ethyl)-6-(3-hydroxypropyl)-1,3-oxazinan-2-one]	> 7.00	79			
C=CC[C@]1(c2ccc(F)cc2)CCN([C@@H](C)c2ccc(C(=O)NC)cc2)C(=O)O1 [EXAMPLE 155, 4-((S)-1-((R)-6-allyl-6-(4-fluorophenyl)-2-oxo-1,3-oxazinan-3-yl)ethyl)-N-methylbenzamide]	6.00 to 7.00	45.6			
C=CC[C@]1(c2ccc(F)cc2)CCN([C@@H](C)c2ccc(C(C)(C)O)cc2)C(=O)O1 [EXAMPLE 156, (R)-6-allyl-6-(4-fluorophenyl)-3-((S)-1-(4-(2-hydroxypropan-2-yl)phenyl)ethyl)-1,3-oxazinan-2-one]	> 7.00	93.8			
C=CC[C@@]1(c2cccs2)CCN([C@@H](C)c2ccc(-c3ccc(F)cc3F)cc2)C(=O)O1 [EXAMPLE 165, (S)-6-allyl-3-((S)-1-(2′,4′-difluorobiphenyl-4-yl)ethyl)-6-(thiophen-2-yl)-1,3-oxazinan-2-one]	> 7.00	92.9			
C[C@@H](c1ccc(-c2ccc(F)cc2F)cc1)N1CC[C@](CC(=O)O)(c2ccc(F)cc2)OC1=O [EXAMPLE 174, 2-((S)-3-((S)-1-(2′,4′-difluorobiphenyl-4-yl)ethyl)-6-(4-fluorophenyl)-2-oxo-1,3-oxazinan-6-yl)acetic acid]	6.00 to 7.00	48			
C=CC[C@]1(c2ccc(F)cc2)CCN([C@@H](C)c2ccc(C#N)cc2)C(=O)O1 [EXAMPLE 192, 4-((S)-1-((R)-6-allyl-6-(4-fluorophenyl)-2-oxo-1,3-oxazinan-3-yl)ethyl)benzonitrile]	> 7.00		70.7		
COCc1ccc([C@H](C)N2CC[C@](CCCO)(c3ccccc3)OC2=O)cc1 [EXAMPLE 199, (R)-6-(3-hydroxypropyl)-3-((S)-1-(4-(methoxymethyl)phenyl)ethyl)-6-phenyl-1,3-oxazinan-2-one]	> 7.00			90.3	
C[C@@H](c1ccc(Cl)cc1)N1CC[C@](CCCO)(c2ccc(F)cc2)OC1=O [EXAMPLE 202, (R)-3-((1S)-1-(4-chlorophenyl)ethyl)-6-(4-fluorophenyl)-6-(3-hydroxypropyl)-1,3-oxazinan-2-one]	> 7.00		95.9		
CC(O)CC1(C(C)C)CCN([C@@H](C)c2ccc(-c3ccc(F)cc3F)cc2)C(=O)O1 (stereo partly drawn) [EXAMPLE 213, 3-((1S)-1-(2′,4′-difluorobiphenyl-4-yl)ethyl)-6-(2-hydroxypropyl)-6-isopropyl-1,3-oxazinan-2-one]	> 7.00		79.1		

— patent publication US8575156B2, “Cyclic inhibitors of 11β-hydroxysteroid dehydrogenase 1” (Vitae Pharmaceuticals, Inc., priority 2007, dated 2013)
